From US12421253B2 (Mirati Therapeutics, Inc., priority 2020, dated 2025)

Key:
KRas^G12V = molecular target: T1, KRas^G12V (Homo sapiens, UniProt P01116, G12V); assay: KRas binding assay (TR-FRET displacement of Cy5 labelled tracer)
T1 construct: […]; biotin (biotinylated); purchased Accelegan Inc
Procedure: (§1) The ability of a compound to bind to KRas was measured using a TR-FRET displacement assay. […] After a 60-minute incubation at room temperature, the reaction was measured using a BMG LABTECH CLARIO star Plus via TR-FRET. […] The POC values were fit to a 4-parameter IC50 equation and the IC50 value reported.

KRas^G13D = KRas^G13D (Homo sapiens, UniProt P01116, G13D); assay: biochemical
Procedure: as §1

KRas^G12R = molecular target: T2, KRas^G12R (Homo sapiens, UniProt P01116, G12R); assay: KRas binding assay (TR-FRET displacement of Cy5 labelled tracer)
T2 construct: […]; biotin (biotinylated); purchased Accelegan Inc
T2 sequence (P01116 1-169 isoform P01116-2 G12R): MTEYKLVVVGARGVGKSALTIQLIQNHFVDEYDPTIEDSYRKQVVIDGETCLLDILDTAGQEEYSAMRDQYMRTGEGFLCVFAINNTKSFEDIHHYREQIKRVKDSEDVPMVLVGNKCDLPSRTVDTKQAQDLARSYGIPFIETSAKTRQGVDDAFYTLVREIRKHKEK
Procedure: as §1

KRas^G12A = molecular target: T3, KRas^G12A (Homo sapiens, UniProt P01116, G12A); assay: as above
T3 construct: […]; biotin (biotinylated); purchased Accelegan Inc
T3 sequence (P01116 1-169 isoform P01116-2 G12A): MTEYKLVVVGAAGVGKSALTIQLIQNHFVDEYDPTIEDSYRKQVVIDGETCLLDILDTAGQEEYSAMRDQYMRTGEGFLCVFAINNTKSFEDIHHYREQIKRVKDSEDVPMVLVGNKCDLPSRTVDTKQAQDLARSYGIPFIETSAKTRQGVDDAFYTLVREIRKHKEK
Procedure: as §1

KRas^WT = molecular target: T4, KRas^WT (Homo sapiens, UniProt P01116); assay: as above
T4 construct: […]; biotin (biotinylated); purchased Accelegan Inc
T4 sequence (P01116 1-169 isoform P01116-2): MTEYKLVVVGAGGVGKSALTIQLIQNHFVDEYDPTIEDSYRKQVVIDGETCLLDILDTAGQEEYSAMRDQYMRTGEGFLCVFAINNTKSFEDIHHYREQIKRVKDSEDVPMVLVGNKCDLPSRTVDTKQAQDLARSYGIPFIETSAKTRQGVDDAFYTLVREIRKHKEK
Procedure: as §1

KRas^Q61H = KRas^Q61H (Homo sapiens, UniProt P01116, Q61H); assay: biochemical
KRas^Q61H, sequence (P01116 1-169 isoform P01116-2 Q61H): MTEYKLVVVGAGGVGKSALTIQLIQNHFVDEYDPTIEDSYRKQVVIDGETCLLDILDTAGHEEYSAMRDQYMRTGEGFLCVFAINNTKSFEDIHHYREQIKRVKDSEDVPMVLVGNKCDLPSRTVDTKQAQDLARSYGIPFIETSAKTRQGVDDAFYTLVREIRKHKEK
Procedure: as §1

KRas^G12S = molecular target: T5, KRas^G12S (Homo sapiens, UniProt P01116, G12S); assay: KRas binding assay (TR-FRET displacement of Cy5 labelled tracer)
T5 construct: […]; biotin (biotinylated); purchased Accelegan Inc
T5 sequence (P01116 1-169 isoform P01116-2 G12S): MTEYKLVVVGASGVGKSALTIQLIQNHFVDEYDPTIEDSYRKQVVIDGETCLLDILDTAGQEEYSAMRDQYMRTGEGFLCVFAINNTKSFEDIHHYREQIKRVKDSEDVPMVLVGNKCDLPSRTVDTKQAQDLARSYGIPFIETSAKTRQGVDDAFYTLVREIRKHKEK
Procedure: as §1

KRas^G12D = molecular target: T6, KRas^G12D (Homo sapiens, UniProt P01116, G12D); assay: as above
T6 construct: […]; biotin (biotinylated); purchased Accelegan Inc
T6 sequence (P01116 1-169 isoform P01116-2 G12D): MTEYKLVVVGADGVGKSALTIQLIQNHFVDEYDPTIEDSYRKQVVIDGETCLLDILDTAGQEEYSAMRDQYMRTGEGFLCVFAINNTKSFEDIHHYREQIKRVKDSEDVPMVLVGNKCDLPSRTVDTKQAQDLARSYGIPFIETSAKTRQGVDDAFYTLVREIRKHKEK
Procedure: as §1

KRas^G12C = KRas^G12C (Homo sapiens, UniProt P01116, G12C); assay: biochemical
KRas^G12C, sequence (P01116 1-169 isoform P01116-2 G12C): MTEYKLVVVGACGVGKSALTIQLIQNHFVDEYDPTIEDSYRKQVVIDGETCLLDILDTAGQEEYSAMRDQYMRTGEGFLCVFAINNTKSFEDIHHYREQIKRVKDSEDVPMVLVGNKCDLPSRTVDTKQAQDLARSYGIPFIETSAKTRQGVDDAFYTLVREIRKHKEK
Procedure: as §1

KRas^G13D, sequence (P01116 1-169 isoform P01116-2 G13D): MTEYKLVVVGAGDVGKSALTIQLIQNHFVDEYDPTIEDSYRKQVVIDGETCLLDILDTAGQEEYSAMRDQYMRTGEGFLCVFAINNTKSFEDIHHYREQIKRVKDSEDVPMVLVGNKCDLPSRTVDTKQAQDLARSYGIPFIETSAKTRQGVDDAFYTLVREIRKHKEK
T1 sequence (P01116 1-169 isoform P01116-2 G12V): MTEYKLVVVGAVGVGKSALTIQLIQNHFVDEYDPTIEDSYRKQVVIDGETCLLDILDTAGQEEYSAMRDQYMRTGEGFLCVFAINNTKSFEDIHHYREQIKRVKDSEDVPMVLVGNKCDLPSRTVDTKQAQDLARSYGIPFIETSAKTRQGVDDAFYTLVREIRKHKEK

| SMILES | IC50 (KRas^G12V) | IC50 (KRas^G13D) | IC50 (KRas^G12R) | IC50 (KRas^G12A) | IC50 (KRas^WT) | IC50 (KRas^Q61H) | IC50 (KRas^G12S) | IC50 (KRas^G12D) | IC50 (KRas^G12C) |
| --- | --- | --- | --- | --- | --- | --- | --- | --- | --- |
| CCc1cccc2cccc(N3CCc4c(nc(OCC56CCCN5CCC6)nc4N4CCOC5(CCSC5)C4)C3)c12 (stereo not drawn) [Example 130, 9-(7-(8-ethylnaphthalen-1-yl)-2-((tetrahydro-1H-pyrrolizin-7a(5H)-yl)methoxy)-5,6,7,8-tetrahydropyrido[3,4-d]pyrimidin-4-yl)-6-oxa-2-thia-9-azaspiro[4.5]decane] | 1260 nM | 1160 nM | 1230 nM | 1460 nM | 772 nM | 950 nM | 1300 nM | 5070 nM | 1100 nM |
| CCc1cccc2cccc(N3CCc4c(nc(OCC56CCCN5CCC6)nc4NCCNc4ncccc4C#N)C3)c12 [Example 154, 2-((2-((7-(8-ethylnaphthalen-1-yl)-2-((tetrahydro-1H-pyrrolizin-7a(5H)-yl)methoxy)-5,6,7,8-tetrahydropyrido[3,4-d]pyrimidin-4-yl)amino)ethyl)amino)nicotinonitrile] | 3070 nM | 8230 nM | 2370 nM | 4040 nM | 6790 nM | 6910 nM | 7120 nM | 35700 nM | 1790 nM |
| CCc1cccc2cccc(N3CCc4c(nc(OCC56CCCN5CCC6)nc4N4CCCC5(C4)NC(=O)NC5=O)C3)c12 (stereo not drawn) [Example 12, 7-(7-(8-ethylnaphthalen-1-yl)-2-((tetrahydro-1H-pyrrolizin-7a(5H)-yl)methoxy)-5,6,7,8-tetrahydropyrido[3,4-d]pyrimidin-4-yl)-1,3,7-triazaspiro[4.5]decane-2,4-dione] | ≤ 2 nM | ≤ 2 nM | ≤ 2 nM | ≤ 2 nM | ≤ 2 nM | ≤ 2 nM | ≤ 2 nM | 3 nM | ≤ 2 nM |
| CCc1cccc2cccc(N3CCc4c(nc(OCC56CCCN5CCC6)nc4N4CCOCC(O)C4)C3)c12 (stereo not drawn) [Example 6, 4-(7-(8-ethylnaphthalen-1-yl)-2-((tetrahydro-1H-pyrrolizin-7a(5H)-yl)methoxy)-5,6,7,8-tetrahydropyrido[3,4-d]pyrimidin-4-yl)-1,4-oxazepan-6-ol] | 118 nM | 159 nM | 71 nM | 86 nM | 104 nM | 132 nM | 100 nM | 310 nM | 88 nM |
| CCc1cccc2cccc(N3CCc4c(nc(OCC56CCCN5CCC6)nc4N4CCCC(c5ccno5)C4)C3)c12 (stereo not drawn) [Example 99, 5-(1-(7-(8-ethylnaphthalen-1-yl)-2-((tetrahydro-1H-pyrrolizin-7a(5H)-yl)methoxy)-5,6,7,8-tetrahydropyrido[3,4-d]pyrimidin-4-yl)piperidin-3-yl)isoxazole] | 958 nM | 1560 nM | 338 nM | 1250 nM | 1240 nM | 1130 nM | 1250 nM | 3010 nM | 1000 nM |
| CCc1cccc2cccc(N3CCc4c(nc(OCC56CCCN5CCC6)nc4N4CCOCC(n5cncn5)C4)C3)c12 (stereo not drawn) [Example 88, 4-(7-(8-ethylnaphthalen-1-yl)-2-((tetrahydro-1H-pyrrolizin-7a(5H)-yl)methoxy)-5,6,7,8-tetrahydropyrido[3,4-d]pyrimidin-4-yl)-6-(1H-1,2,4-triazol-1-yl)-1,4-oxazepane] | 403 nM | 176 nM | 470 nM | 475 nM | 215 nM | 228 nM | 505 nM | 1110 nM | 482 nM |
| CCc1cccc2cccc(N3CCc4c(nc(OCC56CCCN5CCC6)nc4N4CCCC(O)(C(F)(F)F)C4)C3)c12 (stereo not drawn) [Example 110, 1-(7-(8-ethylnaphthalen-1-yl)-2-((tetrahydro-1H-pyrrolizin-7a(5H)-yl)methoxy)-5,6,7,8-tetrahydropyrido[3,4-d]pyrimidin-4-yl)-3-(trifluoromethyl)piperidin-3-ol] | 566 nM | 412 nM | 788 nM | 595 nM | 400 nM | 491 nM | 551 nM | 726 nM | 639 nM |
| CCc1cccc2cccc(N3CCc4c(nc(OCC56CCCN5CCC6)nc4NCc4c5c(n[nH]c4=O)CCCC5)C3)c12 [Example 155, 4-(((7-(8-ethylnaphthalen-1-yl)-2-((tetrahydro-1H-pyrrolizin-7a(5H)-yl)methoxy)-5,6,7,8-tetrahydropyrido[3,4-d]pyrimidin-4-yl)amino)methyl)-5,6,7,8-tetrahydrocinnolin-3(2H)-one] | 7310 nM | 4860 nM | 4920 nM | 1860 nM | 3170 nM | 4670 nM | 3400 nM | 22400 nM | 4420 nM |
| CCc1cccc2cccc(N3CCc4c(nc(OCC56CCCN5CCC6)nc4N4CCCc5ncccc5C4)C3)c12 [Example 55, 6-(7-(8-ethylnaphthalen-1-yl)-2-((hexahydro-1H-pyrrolizin-7a-yl)methoxy)-5,6,7,8-tetrahydropyrido[3,4-d]pyrimidin-4-yl)-6,7,8,9-tetrahydro-5H-pyrido[3,2-c]azepine] | 1100 nM | 3860 nM | 744 nM | 2080 nM | 2900 nM | 4550 nM | 1160 nM | 1160 nM | 893 nM |
| CCc1cccc2cccc(N3CCc4c(nc(OCC56CCCN5CCC6)nc4N4CCCCCC4)C3)c12 [Example 49, 4-(azepan-1-yl)-7-(8-ethylnaphthalen-1-yl)-2-((hexahydro-1H-pyrrolizin-7a-yl)methoxy)-5,6,7,8-tetrahydropyrido[3,4-d]pyrimidine] | 184 nM | 662 nM | 167 nM | 317 nM | 579 nM | 703 nM | 364 nM | 465 nM | 273 nM |
| CCc1cccc2cccc(N3CCc4c(nc(OCC56CCCN5CCC6)nc4NC4CCNC(=O)C4)C3)c12 (stereo not drawn) [Example 153, 4-((7-(8-ethylnaphthalen-1-yl)-2-((tetrahydro-1H-pyrrolizin-7a(5H)-yl)methoxy)-5,6,7,8-tetrahydropyrido[3,4-d]pyrimidin-4-yl)amino)piperidin-2-one] | 3360 nM | 6440 nM | 4660 nM | 7280 nM | 8430 nM | 8150 nM | 4170 nM | 1730 nM | 3510 nM |
| CCc1cccc2cccc(N3CCc4c(nc(OCC56CCCN5CCC6)nc4N4CCCn5nc(CO)cc5C4)C3)c12 [Example 8, (5-(7-(8-ethylnaphthalen-1-yl)-2-((tetrahydro-1H-pyrrolizin-7a(5H)-yl)methoxy)-5,6,7,8-tetrahydropyrido[3,4-d]pyrimidin-4-yl)-5,6,7,8-tetrahydro-4H-pyrazolo[1,5-a][1,4]diazepin-2-yl)methanol] | 137 nM | 628 nM | 102 nM | 316 nM | 271 nM | 567 nM | 175 nM | 43 nM | 139 nM |
| CCc1cccc2cccc(N3CCc4c(nc(OCC56CCCN5CCC6)nc4N4CCCCCCC4)C3)c12 [Example 54, 4-(azocan-1-yl)-7-(8-ethylnaphthalen-1-yl)-2-((hexahydro-1H-pyrrolizin-7a-yl)methoxy)-5,6,7,8-tetrahydropyrido[3,4-d]pyrimidine] | 707 nM | 1080 nM | 663 nM | 767 nM | 943 nM | 1230 nM | 924 nM | 1460 nM | 755 nM |
| CCc1cccc2cccc(N3CCc4c(nc(OCC56CCCN5CCC6)nc4N4C[C@@H]5C(=O)NC(=O)[C@@H]5C4)C3)c12 [Example 11, (3aR,6aS)-5-(7-(8-ethylnaphthalen-1-yl)-2-((tetrahydro-1H-pyrrolizin-7a(5H)-yl)methoxy)-5,6,7,8-tetrahydropyrido[3,4-d]pyrimidin-4-yl)tetrahydropyrrolo[3,4-c]pyrrole-1,3(2H,3aH)-dione] | 18 nM | 42 nM | 42 nM | 45 nM | 51 nM | 50 nM | 15 nM | 22 nM | 41 nM |
| CCc1cccc2cccc(N3CCc4c(nc(OCC56CCCN5CCC6)nc4N(C)CC4(O)CC4)C3)c12 [Example 98, 1-(((7-(8-ethylnaphthalen-1-yl)-2-((tetrahydro-1H-pyrrolizin-7a(5H)-yl)methoxy)-5,6,7,8-tetrahydropyrido[3,4-d]pyrimidin-4-yl)(methyl)amino)methyl)cyclopropan-1-ol] | 341 nM | 629 nM | 514 nM | 453 nM | 444 nM | 537 nM | 482 nM | 1070 nM | 330 nM |
| CCc1cccc2cccc(N3CCc4c(nc(OCC56CCCN5CCC6)nc4N4CCCC(n5ccc(C)n5)C4)C3)c12 (stereo not drawn) [Example 94, 7-(8-ethylnaphthalen-1-yl)-4-(3-(3-methyl-1H-pyrazol-1-yl)piperidin-1-yl)-2-((tetrahydro-1H-pyrrolizin-7a(5H)-yl)methoxy)-5,6,7,8-tetrahydropyrido[3,4-d]pyrimidine] | 1290 nM | 699 nM | 244 nM | 793 nM | 860 nM | 757 nM | 883 nM | 2120 nM | 525 nM |
